Assay results from article PMC5971061, “Differential Effects of Linkers on the Activity of Amphiphilic Tobramycin Antifungals” (Molecules : A Journal of Synthetic Chemistry and Natural …, 2018).
Values after ≈ are worked out from the molar mass of the structure shown.

Legend:
[1] = system: Cryptococcus neoformans MYA-895; parameters: method as in PMID 26033722; conditions: previously observed; cited from earlier work
[2] = system: C. albicans ATCC 10231 (strain A); assay: Time-kill assay, strain A; assay type: cell-based, Candida albicans
Description: (§1) Time-kill assays were used to assess the inhibitory efficiency of 7b against three yeast strains, C. albicans ATCC 10231 (strain A), C. parapsilosis ATCC 22019 (strain J), and C. neoformans clinical isolate CN1. The protocol for time-kill assays followed methods previously described with minor modifications. Yeast cultures were grown overnight in YPD broth at 35 °C with shaking (200 rpm). A working stock of fungal cells was made by diluting cultures in RPMI 1640 medium to an OD600 of 0.125, approximately 1 × 10^6 CFU/mL. From the working stock, 100 μL of cells was added to 4.9 mL of RPMI 1640 medium in sterile culture tubes, making the starting fungal cell concentration […]. Compounds were then added to the fungal cells. The treatment conditions included sterile control, growth control, TOB (parent; negative control), voriconazole (VOR) at 1× MIC (positive control), 7b at 1× and 4× MIC. The treated fungal cultures were incubated at 35 °C with shaking (200 rpm) for 24 h. The samples were taken from the different treatments at regular time points (0, 3, 6, 9, 12, and 24 h.) and plated in duplicates. For each time point, cultures were vortexed, 100 μL of culture was aspirated, and 10-fold serial dilutions were made in sterile ddH2O. From the appropriate dilutions, 100 μL of fungal suspension was spread on PDA plates and incubated at 35 °C for 48 h before the colony counts were determined. At 24 h, 50 μL of 1 mM resazurin was added to the treatments and incubated at 35 °C with rotation for 2 h in the dark for visual inspection. Experiments were performed in duplicate.

[3] = system: C. parapsilosis ATCC 22019 (strain J); assay: Time-kill assay, strain J; assay type: cell-based, Candida parapsilosis
Description: as §1

[4] = system: C. neoformans (strain CN1); assay: Time-kill assay, CN1; assay type: cell-based, Cryptococcus neoformans
Description: as §1

[5] = system: C. albicans ATCC 10231 (strain A); assay: Membrane permeabilization assay using propidium iodide staining; assay type: cell-based, Candida albicans; conditions: 7b at 2× MIC or 4× MIC; TOB 31.3 μg/mL; 2 h treatment; compared to untreated cells
Description: A fresh culture of C. albicans ATCC 10231 (strain A) was prepared in 5 mL of YPD broth in a Falcon tube and was grown overnight at 35 °C at 200 rpm. […] TOB (31.3 μg/mL) was used as a negative control. The cell suspensions were then treated for 2 h at 35 °C with continuous agitation (200 rpm). To prepare a positive control sample, C. albicans ATCC 10231 (strain A) cells were killed by heat shock at 95 °C for 5 min as described by Ocampo and Barrientos. The cells were then centrifuged and resuspended in 500 μL of PBS buffer (pH 7.2 adjusted at room temperature). Subsequently, the cells were treated with propidium iodide (9 μM, final concentration) and incubated for 20 min at room temperature in the dark. […] The data were obtained from at least two independent experiments. The images were also post-processed, utilizing automatic contrast and brightness setting in Microsoft PowerPoint 2013 to eliminate background noise.

[6] = system: C. neoformans clinical isolates CN1-3; assay: MIC across C. neoformans clinical isolates CN1-3; assay type: cell-based, Cryptococcus neoformans; conditions: Cryptococcus neoformans
Description: The final concentrations of compounds 3, 4, 7a, 7b, 9, and 16, as well as that of TOB tested in this study ranged from 0.24–62.5 μg/mL. CAS was used as a positive control and the final concentrations tested for CAS ranged from 0.03–31.3 μg/mL. Briefly, overnight yeast cultures were grown in yeast peptone dextrose (YPD) broth and the cell density was adjusted to an OD600 of 0.12 (~1 × 10^6 CFU/mL) by using a spectrophotometer. Yeast cell suspensions were further diluted to achieve 1–5 × 10^3 CFU/mL in RPMI 1640 medium, and 100 μL of these yeast cells was added to 96-well microtiter plates containing RPMI 1640 medium and titrated compounds. Each test was performed in triplicate. The plates were incubated at 35 °C for 48 h.

Row | Structure (SMILES) | MIC value [1] | reduction of CFU ([2]; 15.6 μg/mL (4× MIC), after 6 h of treatment) | reduction of CFU ([2]; 1× MIC (7b 3.9 μg/mL; VOR 1.0 μg/mL), after 9 h of treatment) | decrease in CFU ([3]; 1.95 μg/mL (1× MIC), after 24 h of treatment) | effect on growth (time-kill, in words) ([3]; 7.8 μg/mL (4× MIC), after 24 h) | effect on growth (time-kill, in words) ([3]; 7b at 1.95 μg/mL (1× MIC)) | time to complete fungal cell death ([4]; 0.49 μg/mL (1× MIC)) | reduction of CFU ([4]; 0.49 μg/mL (1× MIC), after 3 h of treatment) | time to complete fungal cell death ([4]; 1.95 μg/mL (4× MIC)) | propidium iodide (PI) dye uptake (in words) [5] | MIC [6] | effect on growth (time-kill, in words) ([2]; 24-h period, TOB 15.6 μg/mL, VOR 1× MIC 1.0 μg/mL) | effect on growth (time-kill, in words) ([3]; TOB 15.6 μg/mL, 24-h period) | effect on growth (time-kill, in words) ([4]; controls TOB 15.6 μg/mL and VOR 1× MIC, 24-h period)
1 | CCCCCCCCCCCCSC[C@H]1O[C@H](O[C@@H]2[C@@H](O)[C@H](O[C@H]3O[C@H](CN)[C@@H](O)C[C@H]3N)[C@@H](N)C[C@H]2N)[C@H](O)[C@@H](N)[C@@H]1O [Compound 3, O-3-Amino-3-deoxy-6-S-dodecyl-6-thio-α-D-glucopyranosyl-(1→6)-O-[2,6-diamino-2,3,6-trideoxy-α-D-ribo-hexopyranosyl-(1→4)]-2-deoxy-D-streptamine] | 1.95 µg/mL (≈ 2.99 µM) |  |  |  |  |  |  |  |  |  |  |  |  | 
2 | CCCCCCCCCCCCc1cn(C[C@H]2O[C@H](O[C@@H]3[C@@H](O)[C@H](O[C@H]4O[C@H](CN)[C@@H](O)C[C@H]4N)[C@@H](N)C[C@H]3N)[C@H](O)[C@@H](N)[C@@H]2O)nn1 [Compound 7b, O-3-Amino-3,6-dideoxy-6-(4-dodecyl-1H-1,2,3-triazol-1-yl)-α-D-glucopyranosyl-(1→6)-O-[2,6-diamino-2,3,6-trideoxy-α-D-ribo-hexopyranosyl-(1→4)]-2-deoxy-D-streptamine] |  | ≥ 2 log10 | ≥ 2 log10 | ≥ 2 log10 | completely killed | fungistatic effect at 1.95 μg/mL (1× MIC) only for the first 3 h | 6 h | ≥ 2 log10 | 3 h | larger influx of PI dye |  |  |  | 
3 | NC[C@H]1O[C@H](O[C@H]2[C@H](O)[C@@H](O[C@H]3O[C@H](CO)[C@@H](O)[C@H](N)[C@H]3O)[C@H](N)C[C@@H]2N)[C@H](N)C[C@@H]1O [TOB, tobramycin] |  |  |  |  |  |  |  |  |  | negligible staining | > 62.5 µg/mL | did not affect the growth | did not affect the growth | little to no growth inhibitory effect
